From US7763656B2, “Use of Acetylamino benzoic acid compounds for nonsense suppression and the treatment of disease” (PTC Therapeutics, Inc., priority 2002, dated 2010)
Values belong to the compound of their own block, whether it stands above or below them.

Key:
[1] = system: dystrophin premature stop codon in mdx mice; conditions: cited from earlier work
[2] = system: luciferase reporter construct containing a UGA premature termination codon stably transfected in 293T Human Embryonic Kidney cells; assay: cell-based luciferase reporter assay (UGA premature termination codon); conditions: for Activity: ranking combining potency (minimum concentration to produce protein) and efficacy (maximum protein produced), 293T cells, UGA luciferase reporter, gentamicin internal standard
Experimental: Melting points in Table 1 were obtained on an Electrothermal MeltTemp apparatus and are uncorrected. Activity measurements in Table 1 were performed in a cell-based luciferase reporter assay (as described in Section 4.2) comprising a luciferase reporter construct containing a UGA premature termination codon that was stably transfected in 293T Human Embryonic Kidney cells. Gentamicin, a small molecule known to allow readthrough of premature termination codons, was used as an internal standard. Activity measurements are based on the qualitative relation between the minimum concentration of compound required to produce a given protein in a cell (potency) and the maximum amount of protein produced by the cell (efficacy). Potency and efficacy activities are ranked as either extremely high, very high or significant. The combination of these activities is used to determine the activity ranking.
(§1) Two assays were developed for use in high throughput screens to identify small molecules that promote nonsense suppression. Each assay utilized luciferase because it is a functional reporter gene assay (light is only produced if the protein is functional) and it is extremely sensitive (Light intensity is proportional to luciferase concentration in the nM range). The first assay is a cell-based luciferase reporter assay and the second is a biochemical assay consisting of rabbit reticulocyte lysate and a nonsense-containing luciferase reporter mRNA. In the cell-based assay, a luciferase reporter construct containing a UGA premature termination codon was stably transfected in 293T Human Embryonic Kidney cells. In the biochemical assay, mRNA containing a UGA premature termination codon was used as a reporter in an in vitro translation reaction using rabbit reticulocyte lysate supplemented with tRNA, hemin, creatine kinase, amino acids, KOAc, Mg(OAc)2, and creatine phosphate. […] Synthetic mRNA was prepared in vitro using the T7 promoter and the MegaScript in vitro transcription kit (Ambion).
To determine whether compounds also function in vivo, a stable cell line harboring the UGA nonsense-containing luciferase gene was treated with selected compounds. Cells were grown in standard medium supplemented with 1% penicillin-streptomycin (P/S) and 10% fetal bovine serum (FBS) to 70% confluency and split 1:1 the day before treatment. On the following day, cells were trypsinized and 40,000 cells were added to each well of a 96-well tissue culture dish. Serial dilutions of each compound were prepared to generate a six-point dose response curve spanning 2 logs (30 μM to 0.3 μM). The final concentration of the DMSO solvent remained constant at 1% in each well. Cells treated with 1% DMSO served as the background standard, and cells treated with gentamicin served as a positive control.

28S rRNA = assay: chemical foot-printing of ribosomes prepared from HeLa cells (DMS, kethoxal); assay type: binding; conditions: 100 μM, DMS and kethoxal
Experimental: Ribosomes prepared from HeLa cells were incubated with the small molecules (at a concentration of 100 μM), followed by treatment with chemical modifying agents (dimethyl sulfate [DMS] and kethoxal [KE]). Following chemical modification, rRNA was phenol-chloroform extracted, ethanol precipitated, analyzed in primer extension reactions using end-labeled oligonucleotides hybridizing to different regions of the three rRNAs and resolved on 6% polyacrylamide gels. The probes used for primer extension cover the entire 18S (7 oligonucleotide primers), 28S (24 oligonucleotide primers), and 5S (one primer) rRNAs. Controls in these experiments include DMSO (a control for changes in rRNA accessibility induced by DMSO), paromomycin (a marker for 18S rRNA binding), and anisomycin (a marker for 28S rRNA binding).

[3] = system: CFTR in a bronchial epithelial cell line harboring a nonsense codon at amino acid 1282 (W1282X); assay: CFTR function as cAMP-activated chloride channel, SPQ assay; assay type: cell-based; conditions: compound, cAMP stimulation
Experimental: To address the effects of the nonsense-suppressing compounds on mRNAs altered in specific inherited diseases, a bronchial epithelial cell line harboring a nonsense codon at amino acid 1282 (W1282X) was treated with 3-[2-(4-Isopropyl-3-methyl-phenoxy)-acetylamino]-benzoic acid, sodium salt (20RM) and CFTR function was monitored as a cAMP-activated chloride channel using the SPQ assay (Yang et al., 1993, Hum Mol Genet. 2(8):1253-1261 and Howard et al., 1996, Nat Med. 2(4):467-469). […] No increase in fluorescence was observed when cells were not treated with compound or if the cells were not stimulated with cAMP.

[4] = system: dystrophin in mouse primary skeletal muscle cultures derived from mdx mice; assay: dystrophin immunostaining in primary skeletal muscle cultures from mdx mice; assay type: cell-based; conditions: 20 μM, cells cultured for 10 days
Experimental: Mouse primary skeletal muscle cultures derived from 1-day old mdx mice were prepared as described previously (Barton-Davis et al., 1999, J Clin Invest. 104(4):375-381). Cells were cultured for 10 days in the presence of 3-[2-(4-Isopropyl-3-methyl-phenoxy)-acetylamino]-benzoic acid, sodium salt (20 μM). Culture medium was replaced every four days and the presence of dystrophin in myoblast cultures was detected by immunostaining as described previously (Barton-Davis et al., 1999, J Clin Invest. 104(4):375-381). A primary monoclonal antibody to the C-terminus of the dystrophin protein (F19A12) was used undiluted and rhodamine conjugated anti-mouse IgG was used as the secondary antibody. The F19A12 antibody will detect the full-length protein produced by suppression of the nonsense codon. Staining was viewed using a Leica DMR micropscope, digital camera, and associated imaging software at the University of Pennsylvania.

[5] = system: nonsense-containing luciferase reporter mRNA (UGA premature termination codon) in rabbit reticulocyte lysate; assay: biochemical luciferase nonsense suppression assay (in vitro translation); conditions: internal standard
Description: as §1

[6] = system: tripeptidyl-peptidase 1 (TPP-I) in patient-derived LINCL cell line; conditions: patient-derived cell line compound heterozygous for Arg208Stop and another nonsense mutation; maximal; cited from earlier work

- melting point: 233 to 236 °C
Compound: O=C(COc1ccc([N+](=O)[O-])cn1)Nc1cccc(C(=O)O)c1 [Compound 71, 3-[2-(5-Nitro-pyridin-2-yloxy)-acetylamino]-benzoic acid]
- Activity [2]: 0

- luciferase activity [5]: increased luciferase activity
Compound: gentamicin
- luciferase activity ([2]; cell-based assay, internal standard): increased luciferase activity
- TPP-I restored [6]: approximately 7 % of normal levels of TPP-I

- melting point: 178 to 180 °C
Compound: O=C(O)c1cccc(N2CCC(Oc3ccc([N+](=O)[O-])cc3)C2=O)c1 (stereo not shown) [Compound 81, 3-[3-(4-Nitro-phenoxy)-2-oxo-pyrrolidin-1-yl]-benzoic acid]
- Activity [2]: 0

- melting point: 198 to 201 °C
Compound: COc1ccc(OC2CCN(c3cccc(C(=O)O)c3)C2=O)cc1 (stereo not shown) [Compound 82, 3-[3-(4-Methoxy-phenoxy)-2-oxo-pyrrolidin-1-yl]-benzoic acid]
- Activity [2]: 0

- melting point: 207 to 210 °C
Compound: O=C(COc1ccc(Cc2nnc(-c3ccccc3)o2)cc1)Nc1cccc(C(=O)O)c1 [Compound 80, 3-{2-[4-(5-Phenyl-[1,3,4]oxadiazol-2-ylmethyl)-phenoxy]-acetylamino}-benzoic acid]
- Activity [2]: 0

The next lines start with the compound.

Compound: gentamicin sulfate
- suppression of translational termination at premature stop codon (dystrophin) [1]: full length dystrophin

Compound: O=C(COc1ccc(COCCCCN2C(=O)c3ccccc3C2=O)cc1)Nc1cccc(C(=O)O)c1 [Compound 73, 3-(2-{4-[4-(1,3-Dioxo-1,3-dihydro-isoindol-2-yl)-butoxymethyl]-phenoxy}-acetylamino)-benzoic acid]
- Activity [2]: 0
- melting point: 95 to 100 °C

Compound: Cc1cc(OCC(=O)Nc2cccc(C(=O)[O-])c2)ccc1C(C)C.[Na+] [Compound 46, 3-[2-(4-Isopropyl-3-methyl-phenoxy)-acetylamino]-benzoic acid, Sodium salt]
- accessibility of chemical modifying agents to rRNA nucleotides (foot-printing) (28S rRNA): alters the accessibility of the chemical modifying agents to specific nucleotides in the 28S rRNA
- CFTR function (SPQ fluorescence, chloride channel activity) [3]: increase chloride channel activity
- full-length dystrophin expression (immunostaining) [4]: EXPRESS FULL-LENGTH […]
- melting point: 188 to 189 °C

Compound: Cc1cc(C)nc(SCc2ccc(OCC(=O)Nc3cccc(C(=O)O)c3)cc2)n1 [Compound 74, 3-{2-[4-(4,6-Dimethyl-pyrimidin-2-ylsulfanylmethyl)-phenoxy]-acetylamino}-benzoic acid]
- Activity [2]: 0
- melting point: 194 to 196 °C

Compound: N#CCc1ccc(OCC(=O)Nc2cccc(C(=O)O)c2)cc1 [Compound 77, 3-[2-(4-Cyanomethyl-phenoxy)-acetylamino]-benzoic acid]
- Activity [2]: 0
- melting point: 245 to 247 °C
